Test results as given in the NIST ThermoML archive (doi:10.1021/acs.jced.5b00116).
± gives the expanded uncertainty stated by the source.

Experiment: activity coefficient (dimensionless); of the first substance listed, at infinite dilution; wn = mass fraction of the nth substance listed
Details: 101 kPa, Liquid, Chromatography, w1 = 0

Compound: CCO [ethanol] + OCC(O)CO
- activity coefficient (313.15 K): 4.76 ± 0.5
- activity coefficient (333.15 K): 3.98 ± 0.42
- activity coefficient (353.15 K): 3.73 ± 0.39
- activity coefficient (373.15 K): 3.52 ± 0.37
- activity coefficient (393.15 K): 3.25 ± 0.34

Compound: O [water] + OCC(O)CO
- activity coefficient (313.15 K): 0.73 ± 0.08
- activity coefficient (333.15 K): 0.75 ± 0.08
- activity coefficient (353.15 K): 0.78 ± 0.08
- activity coefficient (373.15 K): 0.79 ± 0.08
- activity coefficient (393.15 K): 0.8 ± 0.08
